From patent publication US12692232B2, “Indole carboxamide compound, preparation therefor and use thereof” (NANJING RUISHUNING MEDICAL TECHNOLOGY CO., LTD., priority 2021, dated 2026)

Target: T1, TRPC6 channel (Homo sapiens, UniProt Q9Y210)
T1 sequence (Q9Y210 1-931): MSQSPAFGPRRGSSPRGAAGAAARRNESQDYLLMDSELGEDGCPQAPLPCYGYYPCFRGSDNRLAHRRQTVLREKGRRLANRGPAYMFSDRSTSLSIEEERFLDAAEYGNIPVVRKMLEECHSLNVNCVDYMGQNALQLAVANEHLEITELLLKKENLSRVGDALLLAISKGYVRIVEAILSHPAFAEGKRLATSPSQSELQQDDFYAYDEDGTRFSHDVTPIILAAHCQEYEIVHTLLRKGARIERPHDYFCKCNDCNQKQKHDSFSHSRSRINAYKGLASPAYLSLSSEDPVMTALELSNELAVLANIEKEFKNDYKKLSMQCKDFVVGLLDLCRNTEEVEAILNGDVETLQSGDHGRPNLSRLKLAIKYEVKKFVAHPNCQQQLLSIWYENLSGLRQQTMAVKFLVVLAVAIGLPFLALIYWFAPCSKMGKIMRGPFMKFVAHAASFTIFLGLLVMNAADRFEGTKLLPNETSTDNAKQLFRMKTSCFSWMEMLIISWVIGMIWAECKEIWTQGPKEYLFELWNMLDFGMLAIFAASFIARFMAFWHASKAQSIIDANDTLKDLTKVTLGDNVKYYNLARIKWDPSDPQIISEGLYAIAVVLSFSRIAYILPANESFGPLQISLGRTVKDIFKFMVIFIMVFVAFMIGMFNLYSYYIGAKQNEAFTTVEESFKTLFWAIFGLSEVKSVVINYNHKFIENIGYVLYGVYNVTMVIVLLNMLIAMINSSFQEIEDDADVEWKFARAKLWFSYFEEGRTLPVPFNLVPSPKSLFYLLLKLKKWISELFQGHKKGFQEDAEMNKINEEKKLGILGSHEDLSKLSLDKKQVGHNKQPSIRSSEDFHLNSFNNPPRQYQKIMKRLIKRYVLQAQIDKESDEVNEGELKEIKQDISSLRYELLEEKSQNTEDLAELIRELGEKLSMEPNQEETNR
Assay: Inhibition of TRPC6 channel-mediated Ca2+ entry in HEK293hTRPC6 cells (Fura-2/AM, single concentration)
Type: cell-based
Parameters: expressed in transfected cells; host or cells: HEK293 (lentiviral transduction, puromycin selection)
Conditions: compound 80 μM, OAG 80 μM; for inhibition at 80 µM: read-out: inhibition of Ca2+ entry into the cells via TRPC6 channels compared with the solvent control group
Experimental: The inhibitory effect of the compounds of the present invention (as exemplified by Compound 1-1 obtained in Example 1) on TRPC6 channel-mediated Ca^2+ entry was determined using HEK293hTRPC6 as a tool cell overexpressing TRPC6 protein. The method was as follows:
Establishment of HEK293hTRPC6, a tool cell overexpressing TRPC6 protein: human embryonic kidney cells HEK293 were placed in DMEM culture medium (containing 10% inactivated fetal bovine serum, 100 U-mL^−1 penicillin, and 100 mg-L^−1 streptomycin) and cultured at 37° C. in a 5% CO2 incubator. Cells in the logarithmic growth phase were harvested at 50% and incubated with 25 μL of LV105-TRPC6 lentiviral particle suspension for 24 hours, and then the medium was changed. The experiment included a negative control group (no-load lentivirus) and a blank control group. The medium containing 2 μg/mL puromycin was changed after 48 h of infection until the cells in the blank group died. Western Blot assay was performed to detect the expression of TRPC6 protein in the cells to verify the successful construction of HEK293hTRPC6 cell.
Determination of the effect of the compounds on changes in intracellular calcium ion concentration ([Ca^2+]i) in HEK293hTRPC6 cells: HEK293hTRPC6 cell suspension was added to a 24-well plate with a coverslip and incubated at 37° C. in a 5% CO2 incubator for 24 h. The cell crawls were then removed and placed in the fluorescent dye Fura-2/AM, and incubated for 20 min at room temperature away from light. The slides were placed in the center of the bath, perfused with calcium-free Tyrode's solution for 5 min and fixed on the stage of an inverted fluorescence microscope. […] Fluorescence intensity was measured at different excitation wavelengths (340 nm, 380 nm) using a TILL Ion Imaging system (TILLvisION), and the value of fluorescence intensity emitted by intracellular fluorescent probe at different excitation wavelengths was substituted into the formula: [Ca^2+]i=Kd×β×(R−Rmin)/[…]. In the formula, R represents the experimentally determined fluorescence ratio (F340/F380); Kd represents the dissociation constant for the reaction of Fura-2/AM with Ca^2+, which is 386 nmol/L under physiological conditions; Rmax represents the F340/F380 when Ca^2+ is saturated (all Fura-2/AM is bound to Ca^2+); Rmin represents the F340/F380 when there is no Ca^2+; and β represents the ratio of fluorescence intensities at 380 nm in the absence of Ca^2+ and when Ca^2+ is saturated.
Experimental results: the amount of TRPC6-mediated Ca^2+ entry under conditions of open TRPC6 channels and the presence of extracellular Ca^2+ was measured, and the actual biological activity of the compounds was assessed by comparison with the solvent control.

Q: For Cn1c(C(=O)NCCC(=O)O)cc2ccccc21 [3-[(1-methyl-1H-indole-2-carbonyl)amino]propionic acid, reference compound], which “amount of TRPC6-mediated Ca2+ entry” value is on record?
A: 0.10±0.01

Q: What about the inhibition at 80 µM of the same compound?
A: 53.9%

Q: With CC(=O)OCCCNC(=O)c1c(C=O)c2ccccc2n1C [compound 1-1, propyl 3-[(3-formyl-1-methyl-1H-indole-2-carbonyl)amino]acetate] as the compound, how does the “amount of TRPC6-mediated Ca2+ entry” value read?
A: 0.06±0.01

Q: What about the inhibition at 80 µM of the same compound?
A: 79.9%
